Laboratory results taken from patent US20060246163A1, “TREATMENT OF INSULIN RESISTANCE SYNDROME” (TG BIOTECH, priority 2005, published 2006).

Assays:
Format in all cases: cell-based
AMPK = AMPK phosphorylation (threonine 172) in L6 myotube cells, immunoblot; settings: 1 mM, high glucose
Procedure: L6 myotube cells were treated with 60 μg/mL of GP and incubated for the period of time indicated. Cells were lysed in lysis buffer and cytosolic proteins were resolved by SDS-PAGE, protein bands were transferred onto a nitrocellulose membrane, and phospho-AMPK was analyzed with specific antibodies. 1) control cells with no treatment; 2) cells treated with GP for 30 min; 3) cells treated with GP for 1 h; 3) cells with treated with GP for 2 hs.
(§2) The kinase activities were evaluated with specific antibodies. 1) control; 2) GP 30 μg/mL; 3) GP 60 μg/mL; 4) AICAR 1 mM.
We treated GP on L6 myotube cells to determine whether the treatment activates AMPK activity. Activation of AMPK was estimated by the increase in the phosphorylation on the threonine^172 residue of AMPK using specific antibodies. […] Cells were pretreated with high glucose (27.5 mM) to induce insulin resistance and to repress AMPK activation (Itani, 2003).
(§3) L6 cells were differentiated into mature muscle cells in a low serum condition (2%, v/v). AICAR was used as an internal positive control. Once drug treatments were completed, cells were harvested, subjected to be lysated, and equal amount of proteins from each treatment was loaded on gels for analyzing AMPK and p38 MAPK activity levels (FIG. 7). Total AMPK protein was also immunoblotted to make sure that equal amount of protein was loaded on the gels.

p38 MAPK = p38 MAPK activation in L6 cells; settings: GP 30, 60 μg/mL; AICAR 1 mM
Procedure: as §2, §3
We investigated whether GP is able to activate p38 MAPK in L6 cells.

ACC = ACC Ser79 phosphorylation in L6 myotube cells; settings: GP 30, 60, 100 μg/mL; AICAR 1 mM; insulin 100 nM
Procedure: (§1) 1) control; 2) GP 30 μg/mL; 3) GP 60 μg/mL; 4) GP 100 μg/mL; 5) AICAR 1 mM; 6) insulin 100 nM.
L6 myotube cells were treated with GP and AICAR.

AKT = AKT phosphorylation/activity in L6 cells; settings: GP 30, 60, 100 μg/mL; AICAR 1 mM; insulin 100 nM
Procedure: as §1
AKT (also called protein kinase B, PKB) phosphorylation is catalyzed by PI3K in insulin signal pathway. Whether GP treatment on the muscle cells affects AKT activity was tested.

IKKβ = IKKβ phosphorylation/activity in L6 myotube cells in the presence of tunicamycin; settings: GP 30, 60 μg/mL, AICAR 1 mM, insulin 100 nM
Procedure: The cytosolic fraction was subjected on SDS-PAGE and blotted on nitrocellulose membrane. The membrane was incubated with anti-phospho-IKKβ (S^177/181), anti-phospho IRS1 (S^307), and anti-phospho SAPK/JNK (T^183) antibodies. 1) control cells with no treatment; 2) L6 cells treated with tunicamycin; 3) cells treated with 30 μg/mL GP in the presence of tunicamycin; 4) cells treated with 60 μg/mL GP in the presence of tunicamycin; 5) cells treated with 1 mM AICAR in the presence of tunicamycin; 6) cells incubated with 100 nM insulin in the presence of tunicamycin; 7) cells incubated with 100 nM insulin in the absence of tunicamycin.
The effect of GP on the phosphorylation of IKKβ in L6 myotube cells in the presence of tunicamycin was evaluated. The cytosolic fraction was subjected to SDS-PAGE and blotted on nitrocellulose membrane. The cytosolic fraction was subjected to SDS-PAGE and blotted on nitrocellulose membrane. The membrane was incubated with anti-phospho-IKKβ (S^177/181), anti-phospho IRS1 (S^307), and anti-phospho SAPK/JNK (T^183) antibodies.

JNK = JNK activity in L6 myotube cells, phospho JNK immunoblot; settings: 2 hs; GP 30, 60 μg/mL; AICAR 1 mM; insulin 100 nM
Procedure: L6 myotube cells were treated with GP for 2 hs. Cytosolic fraction was immunoblotted against phospho JNK antibodies. 1) control cells with no treatment; 2) GP 30 μg/ mL; 3) GP 60 μg/ mL; 4) AICAR 1 mM; 5) insulin 100 nM. We also investigated effects of GP treatment on JNK activity in L6 myotube cells.

L6 myotube cells = test: 2-deoxyglucose uptake in L6 myotube cells; settings: high glucose; GP 60 μg/mL 2 hs, AICAR 1 mM 1 h, insulin 100 nM 20 min
Procedure: Examples 1-5 indicate that GP would increase glucose uptake regardless of the presence of insulin. To measure the glucose uptake in vitro, we performed 2-deoxyglucose uptake experiment. Since 2-deoxyglucose is not metabolized inside cells, radiolabeled 2-deoxyglucose was used for measuring glucose uptake experiment. Whether GP increases glucose uptake in L6 myotube cells was investigated. Prior to adding the materials, the cells were incubated in the presence of high glucose, since high glucose is known to obstruct glucose uptake in muscle […] (60 μg/mL), AICAR (1 mM) and insulin (100 nM) were incubated for 2 hs, 1 h and 20 min, respectively. Immediately after washing in Hepes buffered saline (HBS), the cells were incubated with 2-deoxyglucose (10 μM) in HBS for 10 min. Extensive washing was preceded before measuring radioactivity in scintillation counter. The uptake unit was estimated by the total counts of incubation.

Compound | Phosphorylation level of AMPK (AMPK) | p38 MAPK activation (p38 MAPK) | Phosphorylation of Ser79 of ACC (ACC) | AKT activity (phosphorylation) (AKT) | Serine phosphorylation / activity of IKKβ (IKKβ) | JNK activity (JNK) | Increase of 2-deoxyglucose uptake, on average (L6 myotube cells) [%]
NC(=O)c1ncn([C@@H]2O[C@H](COP(=O)(O)O)[C@@H](O)[C@H]2O)c1N [AICAR, 5′-phosphoribosyl-5-aminoimidazole-4-carboxamide] | comparable to that of 60 μg/mL of GP | exhibited p38 activation | increased the phosphorylation of ACC but slightly less than that observed with 30 μg/mL of GP | Neither GP nor AICAR appeared to affect AKT activity | slightly reduced | not affected | 42
insulin: hormone used as positive marker/control for GLUT4 translocation and AKT activation |  |  | did not affect the phosphorylation | activated AKT activity considerably | slightly reduced | not affected | 40
